Reference: ChEMBL document CHEMBL1143587, “Discovery of S-phase arresting agents derived from noscapine” (J Med Chem, 2005)
Calls of active or inactive are those of the source. The rule behind the calls is not given here.

Assays:
HEK293 [1] = test: Effect to arrest GI-phase on HEK 293 cells at 10 uM was determined; format: functional, Homo sapiens
HEK293 [2] = test: Effect to arrest G2/M-phase on HEK 293 cells at 10 uM was determined; format: functional, Homo sapiens
HEK293 [3] = test: Effect to arrest S-phase on HEK 293 cells at 10 uM was determined; format: functional, Homo sapiens
HEK293 [4] = test: Effect to arrest G2/M-phase on HEK 293 cells at 50 uM was determined; format: functional, Homo sapiens
HEK293 [5] = test: Effect to arrest S-phase on HEK 293 cells at 50 uM was determined; format: functional, Homo sapiens
HEK293 [6] = test: Effect to arrest GI-phase on HEK 293 cells at 50 uM was determined; format: functional, Homo sapiens
HEK293 [7] = test: Effect to arrest S-phase on HEK 293 cells at 50 uM was determined; Not significant; format: functional, cell-based; details: Homo sapiens
HEK293 [8] = test: Effect to arrest S-phase on HEK 293 cells at 1 uM was determined; format: functional, Homo sapiens
HEK293 [9] = test: Effect to arrest GI-phase on HEK 293 cells at 1 uM was determined; format: functional, Homo sapiens
HEK293 [10] = test: Compound was tested for inhibition of HEK293 proliferation; format: functional, cell-based; details: Homo sapiens
HEK293 [11] = test: Effect to arrest G2/M-phase on HEK 293 cells at 1 uM was determined; format: functional, Homo sapiens
HEK293 [12] = test: Effect to arrest G2/M-phase on HEK 293 cells at 25 uM was determined; format: functional, Homo sapiens
HEK293 [13] = test: Effect to arrest S-phase on HEK 293 cells at 25 uM was determined; format: functional, Homo sapiens
HEK293 [14] = test: Effect to arrest GI-phase on HEK 293 cells at 25 uM was determined; format: functional, Homo sapiens

Row | Structure (SMILES) | Effect (HEK293 [1]) [%] | Effect (HEK293 [2]) [%] | Effect (HEK293 [3]) [%] | Activity (HEK293 [7]) | also measured
1 | COc1ccc2c(c1SCc1ccccc1)C(=O)O[C@@H]2[C@H]1c2c(cc3c(c2OC)OCO3)CCN1C | 24 | 11 | 65 |  | 
2 | COc1ccc2c(c1OC)C(=O)O[C@@H]2[C@H]1c2c(cc3c(c2OC)OCO3)CCN1C [NOSCAPINE] |  |  |  |  | Effect (HEK293 [4]): 76%; Effect (HEK293 [5]): 18%; Effect (HEK293 [6]): 6%
3 | COc1ccc2c(c1-c1ccc(N(C)C)cc1)C(=O)O[C@@H]2[C@H]1c2c(cc3c(c2OC)OCO3)CCN1C |  |  |  | inactive | 
4 | COc1ccc2c(c1-c1ccsc1)C(=O)O[C@@H]2[C@H]1c2c(cc3c(c2OC)OCO3)CCN1C |  |  |  | inactive | 
5 | COc1ccc2c(c1OCc1csc(C)n1)C(=O)O[C@@H]2[C@H]1c2c(cc3c(c2OC)OCO3)CCN1C | 28 | 10 | 62 |  | 
6 | COc1cc2c(c(OC)c1OC)-c1ccc(OC)c(=O)cc1[C@@H](NC(C)=O)CC2 [COLCHICINE] | 3 | 83 | 14 |  | 
7 | COc1ccc2c(c1-c1ccc(C(C)(C)C)cc1)C(=O)O[C@@H]2[C@H]1c2c(cc3c(c2OC)OCO3)CCN1C |  |  |  | inactive | 
8 | COc1cc(COc2c(OC)ccc3c2C(=O)O[C@@H]3[C@H]2c3c(cc4c(c3OC)OCO4)CCN2C)cc(OC)c1OC | 19 | 16 | 65 |  | Effect (HEK293 [8]): 65%; Effect (HEK293 [9]): 24%; Effect (HEK293 [4]): 6%; EC50 (HEK293 [10]): 1.9 µM; Effect (HEK293 [5]): 84%; Effect (HEK293 [11]): 11%; Effect (HEK293 [6]): 13%
9 | COc1ccc2c(c1-c1cc(F)cc(F)c1)C(=O)O[C@@H]2[C@H]1c2c(cc3c(c2OC)OCO3)CCN1C |  |  |  | inactive | 
10 | COc1ccc2c(c1OCc1ccsc1)C(=O)O[C@@H]2[C@H]1c2c(cc3c(c2OC)OCO3)CCN1C |  |  |  |  | Effect (HEK293 [12]): 10%; Effect (HEK293 [13]): 62%; Effect (HEK293 [14]): 28%
11 | COc1ccc2c(c1OCc1ccccc1)C(=O)OC2[C@H]1c2c(cc3c(c2OC)OCO3)CCN1C (stereo not given in full) | 28 | 17 | 57 |  | Effect (HEK293 [4]): 10%; EC50 (HEK293 [10]): 15 µM; Effect (HEK293 [5]): 67%; Effect (HEK293 [12]): 15%; Effect (HEK293 [13]): 71%; Effect (HEK293 [14]): 12%; Effect (HEK293 [6]): 23%
12 | COc1cc(-c2c(OC)ccc3c2C(=O)O[C@@H]3[C@H]2c3c(cc4c(c3OC)OCO4)CCN2C)cc(OC)c1OC |  |  |  | inactive | 
